# Data from patent US20150250770A1, “LKB1 AS PREDICTIVE MARKER OF EVEROLIMUS EFFICACY IN BREAST CANCER” (CENTRE LEON BERARD, priority 2012, published 2015).
# Read-outs that look alike come from different tables or passages of the source.
# Tests used:
# [1] = TAMRAD study; cited from earlier work
# [2] = system: hormone receptor-positive and human epidermal growth factor receptor type 2 (HER2)-negative mBC; settings: cited from earlier work
# [3] = system: breast tumours with low or high LKB1 expression; test: TAMRAD translational study: time to progression by LKB1 H score (IHC) in primary tumour; assay type: in vivo, human
# Experimental: Paraffin embedded breast tumors were serially sectioned at a thickness of 4 μm. After deparaffinization and rehydration, tissue sections were boiled in low pH buffer (Dako) using a PT Link at 97° C. for 30 minutes. For blocking endogenous peroxidases, the slides were incubated in 5% hydrogen peroxide in sterile water. The slides were then incubated at room temperature for one hour with the anti-LKB1 polyclonal rabbit antibody (Ref: Ab58786, Abcam, Cambridge, UK) diluted at 1/50. After rinsing in Phosphate Buffer Saline, the slides were incubated with a biotinylated secondary antibody bound to a streptavidin peroxidase conjugate (Envision Flex kit Ref: K800021-2, Dako, Trappes, France). […] Sections were counterstained with hematoxylin.
# All slides were read by a single senior pathologist who was blinded to the clinical data. For comparison of the staining among tissues, samples were scored semi-quantitatively using a complete histological score (H score) that considered both the staining intensity and the percentage of cells stained at a specific range of intensities. For each case, the complete H score was defined as the products of the percentage of cells stained at a given staining intensity (0-100) and the staining intensity score (0, none; 1, weak, 2, moderate, and 3, intense). […]
# [4] = system: metastatic breast cancer ER+/HER2− progressed after aromatase inhibitor; settings: 724 patients randomized 2:1; cited from earlier work
molecule,measurement,setting,value
"CO[C@H]1C[C@@H]2CC[C@@H](C)[C@@](O)(O2)C(=O)C(=O)N2CCCC[C@H]2C(=O)O[C@H]([C@H](C)C[C@@H]2CC[C@@H](OCCO)[C@H](OC)C2)CC(=O)[C@H](C)/C=C(\C)[C@@H](O)[C@@H](OC)C(=O)[C@H](C)C[C@H](C)/C=C/C=C/C=C/1C [everolimus, 42-O-(2-hydroxyethyl)rapamycin]",patients who had to decrease the dose of everolimus,[1],20%
same,patients who had to stop everolimus due to toxicities,[1],20%
CC/C(=C(\c1ccccc1)c1ccc(OCCN(C)C)cc1)c1ccccc1 [tamoxifen],median TTP,"[2]; ITT population, exploratory P=0.002",4.5 months
same,clinical benefit rate (CBR) at 6 months,"[2]; ITT population, exploratory P=0.045",42%
same,time-to-progression (TTP),"[2]; TAMRAD trial, 111 patients",4.5 months
same,median OS,[2]; last update of OS in September 2011,32.9 months
same,clinical benefit rate (CBR) at 6 months,[2]; per-protocol population,41%
same,time to progression,"[3]; patients with H Score above 90, p=0.35",5.5 months
same,time to progression,"[3]; patients with LKB1 H Score below or at 90, P=0.03",4.5 months
exemestane [exemestane and placebo],"progression free survival (PFS), local investigator assessment",[4],2.8 months
